Results taken from patent US7998989B2, “2-Imino-1,3-thiazoline-based compounds and T-type calcium channel inhibitors containing the same” (Korea Institute of Science and Technology, priority 2007, dated 2011).
Read-outs that look alike come from different tables or passages of the source.

Experiments:
[1] = molecular target: T1, α1G T-type calcium channel (Homo sapiens, UniProt O43497); experiment: Assay for % inhibiting activity against T-type calcium channel using FDSS6000 (fluo-3 calcium imaging, KCl activation); format: cell-based
T1 construct: host or cells: HEK293
Method in brief: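 Percent inhibition derived from […] area against untreated control (100%), after 75 s compound pre-exposure and 75 mM KCl activation. Cells: HEK293 with stable α1G plus Kir2.1, fluo-3/AM-labelled (5 μM), assayed in pH 7.4 HEPES containing 10 mM CaCl2.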

[2] = HEK293, 10 μM, HEK293 cells stably expressing α1G T-type calcium channel and Kir2.1, compounds of the examples, read-out: FDSS (% inhibition)/10uM
[3] = 10 μM, FDSS (% inhibition), comparative compounds where R6 is a phenyl group, read-out: FDSS

T1 sequence (O43497 whole entry): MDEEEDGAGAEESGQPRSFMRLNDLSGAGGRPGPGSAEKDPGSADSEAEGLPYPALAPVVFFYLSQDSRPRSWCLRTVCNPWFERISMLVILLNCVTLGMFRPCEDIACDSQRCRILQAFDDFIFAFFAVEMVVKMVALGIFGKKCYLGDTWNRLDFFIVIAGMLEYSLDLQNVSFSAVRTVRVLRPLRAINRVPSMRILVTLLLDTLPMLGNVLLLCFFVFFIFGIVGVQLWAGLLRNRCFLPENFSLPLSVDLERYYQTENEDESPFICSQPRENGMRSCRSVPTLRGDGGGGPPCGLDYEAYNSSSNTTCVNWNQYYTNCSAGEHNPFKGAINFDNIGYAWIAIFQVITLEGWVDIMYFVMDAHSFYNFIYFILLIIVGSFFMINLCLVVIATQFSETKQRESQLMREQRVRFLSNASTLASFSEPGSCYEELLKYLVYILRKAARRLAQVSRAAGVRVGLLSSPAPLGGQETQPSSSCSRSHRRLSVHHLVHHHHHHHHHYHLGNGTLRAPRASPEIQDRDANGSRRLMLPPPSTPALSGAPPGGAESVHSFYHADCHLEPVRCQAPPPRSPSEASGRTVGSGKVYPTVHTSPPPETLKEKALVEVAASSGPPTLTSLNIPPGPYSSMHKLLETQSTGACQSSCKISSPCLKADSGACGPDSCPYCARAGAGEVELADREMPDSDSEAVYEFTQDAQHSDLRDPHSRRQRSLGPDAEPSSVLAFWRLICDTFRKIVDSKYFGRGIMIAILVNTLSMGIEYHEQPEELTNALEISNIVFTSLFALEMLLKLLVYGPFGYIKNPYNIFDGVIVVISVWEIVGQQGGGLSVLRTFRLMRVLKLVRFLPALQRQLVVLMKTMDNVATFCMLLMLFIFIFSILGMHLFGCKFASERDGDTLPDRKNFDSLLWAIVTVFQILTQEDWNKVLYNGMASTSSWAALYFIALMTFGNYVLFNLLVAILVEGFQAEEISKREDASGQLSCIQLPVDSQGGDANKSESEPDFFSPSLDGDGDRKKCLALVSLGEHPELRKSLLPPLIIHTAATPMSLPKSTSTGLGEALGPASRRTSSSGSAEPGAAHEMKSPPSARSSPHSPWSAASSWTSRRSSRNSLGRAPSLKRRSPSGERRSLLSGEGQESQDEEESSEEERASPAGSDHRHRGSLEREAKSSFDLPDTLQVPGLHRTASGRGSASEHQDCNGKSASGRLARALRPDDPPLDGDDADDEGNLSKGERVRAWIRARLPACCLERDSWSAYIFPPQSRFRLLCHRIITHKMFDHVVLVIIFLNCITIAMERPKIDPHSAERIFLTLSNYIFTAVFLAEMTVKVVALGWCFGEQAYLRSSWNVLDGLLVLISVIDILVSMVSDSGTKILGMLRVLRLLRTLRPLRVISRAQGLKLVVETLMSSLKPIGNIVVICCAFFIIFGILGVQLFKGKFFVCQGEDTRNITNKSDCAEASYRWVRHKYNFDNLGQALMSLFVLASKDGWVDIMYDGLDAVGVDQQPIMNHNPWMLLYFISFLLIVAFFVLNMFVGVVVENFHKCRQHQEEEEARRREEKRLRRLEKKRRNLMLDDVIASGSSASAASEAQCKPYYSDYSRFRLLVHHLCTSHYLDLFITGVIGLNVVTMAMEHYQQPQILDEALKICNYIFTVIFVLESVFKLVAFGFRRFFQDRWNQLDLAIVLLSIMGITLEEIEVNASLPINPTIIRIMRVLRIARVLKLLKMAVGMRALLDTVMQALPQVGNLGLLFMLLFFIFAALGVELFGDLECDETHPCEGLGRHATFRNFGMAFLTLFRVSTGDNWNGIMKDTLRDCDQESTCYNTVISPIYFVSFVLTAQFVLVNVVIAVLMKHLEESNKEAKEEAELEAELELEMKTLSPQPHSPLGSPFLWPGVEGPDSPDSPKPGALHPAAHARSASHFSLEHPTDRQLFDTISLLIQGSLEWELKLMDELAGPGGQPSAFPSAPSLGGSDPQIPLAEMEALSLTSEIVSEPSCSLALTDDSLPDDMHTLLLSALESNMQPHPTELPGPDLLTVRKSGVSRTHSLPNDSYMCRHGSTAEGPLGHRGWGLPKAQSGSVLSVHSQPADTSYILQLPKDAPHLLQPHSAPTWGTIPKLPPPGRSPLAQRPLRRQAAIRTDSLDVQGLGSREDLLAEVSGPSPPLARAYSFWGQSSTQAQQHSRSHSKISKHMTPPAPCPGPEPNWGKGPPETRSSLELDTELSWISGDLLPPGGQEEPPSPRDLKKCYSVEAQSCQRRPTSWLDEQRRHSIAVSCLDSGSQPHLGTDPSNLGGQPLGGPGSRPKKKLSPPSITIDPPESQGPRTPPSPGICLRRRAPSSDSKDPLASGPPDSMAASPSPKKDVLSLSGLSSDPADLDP

SMILES | inhibition at 10 µM [1, 2] [%] | melting point [°C] | inhibition at 10 µM [1, 3] [%]
CN1C(=NCCc2ccccc2)SCC1CC(=O)Nc1ccc(Oc2ccccc2)cc1.Cl (stereo not shown) [KHG24224, (2-phenethylimino-3-methyl-1,3-thiazolidine-4-yl)-N-(4-phenoxyphenyl)-acetamide hydrochloride] | 32 | 225.5 | 
CCc1ccc(NC(=O)CC2CSC(=NC3CCCCC3)N2C2CC2)cc1.Cl (stereo not shown) [KHG24272, [2-cyclohexylimino-3-cyclopropyl-1,3-thiazolidine-4-yl]-N-(4-ethylphenyl)-acetamide hydrochloride] | 37.6 | 194.2 | 
CCCN1C(=NC2CCCCC2)SCC1CC(=O)Nc1ccc(CC)cc1.Cl (stereo not shown) [KHG24298, [2-cyclohexylimino-3-(n-propyl)-1,3-thiazolidine-4-yl]-N-(4-ethylphenyl)-acetamide hydrochloride] | 60.4 | 221.4 | 
CC(C)c1ccc(NC(=O)CC2CSC(=Nc3ccc(C#N)cc3)N2C)cc1.Cl (stereo not shown) [KHG21945, [2-(4-cyanophenylimino)-3-methyl-1,3-thiazolidine-4-yl]-N-(4-isopropylphenyl)-acetamide hydrochloride] |  | 234 to 235 | 7.71
CC(C)c1ccc(NC(=O)CC2CSC(=Nc3ccc(F)c(Cl)c3)N2C)cc1.Cl (stereo not shown) [KHG21947, [2-(3-chloro-4-fluorophenylimino)-3-methyl-1,3-thiazolidine-4-yl]-N-(4-isopropylphenyl)-acetamide hydrochloride] |  | 239 to 241 | 23.9
Cl.O=C(CC1CSC(=NC2CCCCC2)N1Cc1ccccc1)Nc1ccc(Cl)cc1 (stereo not shown) [KHG24299, (2-cyclohexylimino-3-benzyl-1,3-thiazolidine-4-yl)-N-(4-chlorophenyl)-acetamide hydrochloride] | 45.6 | 199 | 
CCCN1C(=NC2CCCCC2)SCC1CC(=O)Nc1ccc(C)cc1.Cl (stereo not shown) [KHG24297, [2-cyclohexylimino-3-(n-propyl)-1,3-thiazolidine-4-yl]-N-(4-methylphenyl)-acetamide hydrochloride] | 51 | 188.9 | 
CN1C(=NC2CCCC2)SCC1CC(=O)Nc1cc([N+](=O)[O-])ccc1F.Cl (stereo not shown) [KHG24104, (2-cyclopentylimino-3-methyl-1,3-thiazolidine-4-yl)-N-(2-fluoro-5-nitrophenyl)-acetamide hydrochloride] | 34.3 | 234.5 to 236 | 
CCc1ccc(NC(=O)CC2CSC(=NC3CCCCC3)N2Cc2ccccc2)cc1.Cl (stereo not shown) [KHG24306, (2-cyclohexylimino-3-benzyl-1,3-thiazolidine-4-yl)-N-(4-ethylphenyl)-acetamide hydrochloride] | 53.2 | 146.4 | 
CN1C(=NC2CCCC2)SCC1CC(=O)Nc1cc(Cl)ccc1F.Cl (stereo not shown) [KHG24103, (2-cyclopentylimino-3-methyl-1,3-thiazolidine-4-yl)-N-(5-chloro-2-fluorophenyl)-acetamide hydrochloride] | 45 | 214 to 216 | 

Further lines, results first:

inhibition at 10 µM [1, 2] [%] | melting point [°C] | inhibition at 10 µM [1, 3] [%] | SMILES
44.2 | 156 to 159 |  | COc1ccc(CNC(=O)C2CSC(=NC3CCCCCC3)N2C)cc1.Cl (stereo not shown) [KHG24339, (2-cycloheptylimino-3-methyl-1,3-thiazolidine-4-yl)-N-(4-methoxybenzyl)-carboxamide hydrochloride]
63.4 | 266 |  | CCc1ccc(NC(=O)CC2CSC(=NC34CC5CC(CC(C5)C3)C4)N2C2CC2)cc1.Cl (stereo not shown) [KHG24799, [2-(1-adamantylimino)-3-cyclopropyl-1,3-thiazolidine-4-yl]-N-(4-ethylphenyl)-acetamide hydrochloride]
47.9 | 244 to 246 |  | CC1SC(=NC2CCCCC2)N(C)C1CC(=O)Nc1cc(CF)cc(CF)c1.Cl (stereo not shown) [KHG24522, (2-cyclohexylimino-3,5-dimethyl-1,3-thiazolidine-4-yl)-N-(3,5-difluoromethylphenyl)-acetamide hydrochloride]
47.2 | 164 |  | CCCCN1C(=NC23CC4CC(CC(C4)C2)C3)SCC1CC(=O)Nc1ccc(C)cc1.Cl (stereo not shown) [KHG24781, [2-(1-adamantylimino)-3-(n-butyl)-1,3-thiazolidine-4-yl]-N-(4-methylphenyl)-acetamide hydrochloride]
46.7 | 227 to 229 |  | COc1ccc(NC(=O)CC2CSC(=NC34CC5CC(CC(C5)C3)C4)N2C)cc1.Cl (stereo not shown) [KHG24419, [2-(1-adamantyl)imino-3-methyl-1,3-thiazolidine-4-yl]-N-(4-methoxyphenyl)-acetamide hydrochloride]
57 | 220 |  | Cc1ccc(NC(=O)CC2CSC(=NC34CC5CC(CC(C5)C3)C4)N2C(C)C)cc1.Cl (stereo not shown) [KHG24831, [2-(1-adamantylimino)-3-isopropyl-1,3-thiazolidine-4-yl]-N-(4-methylphenyl)-acetamide hydrochloride]
52.5 | 208 |  | CN1C(=NC2CCCCC2)SCC1CC(=O)Nc1cc(Cl)ccc1Cl.Cl (stereo not shown) [KHG24532, (2-cyclohexylimino-3-methyl-1,3-thiazolidine-4-yl)-N-(2,5-dichlorophenyl)-acetamide hydrochloride]
65.4 | 240 to 242 |  | CC1SC(=NC2CCCCCC2)N(C)C1CC(=O)Nc1ccc(Cl)cc1.Cl (stereo not shown) [KHG24643, (2-cycloheptylimino-3,5-dimethyl-1,3-thiazolidine-4-yl)-N-(4-chlorophenyl)-acetamide hydrochloride]
59.7 | 155 |  | CCCN1C(=NC23CC4CC(CC(C4)C2)C3)SCC1CC(=O)Nc1ccc(C(C)C)cc1.Cl (stereo not shown) [KHG24807, [2-(1-adamantylimino)-3-n-propyl-1,3-thiazolidine-4-yl]-N-(4-isopropylphenyl)-acetamide hydrochloride]
59.8 | 154 |  | CN1C(=NC2C3CC4CC(C3)CC2C4)SCC1CC(=O)Nc1ccc(F)cc1.Cl (stereo not shown) [KHG24842, [2-(2-adamantylimino)-3-methyl-1,3-thiazolidine-4-yl]-N-(4-fluorophenyl)-acetamide hydrochloride]
47 | 190 to 192 |  | CC1SC(=NC2CCCCC2)N(C)C1CC(=O)Nc1ccc(C(F)(F)F)cc1.Cl (stereo not shown) [KHG24527, (2-cyclohexylimino-3,5-dimethyl-1,3-thiazolidine-4-yl)-N-(4-trifluoromethylphenyl)-acetamide hydrochloride]
32.2 | 153 |  | CCCN1C(=NC23CC4CC(CC(C4)C2)C3)SCC1CC(=O)Nc1cc(Cl)cc(Cl)c1.Cl (stereo not shown) [KHG24805, [2-(1-adamantylimino)-3-n-propyl-1,3-thiazolidine-4-yl]-N-(3,5-dichlorophenyl)-acetamide hydrochloride]
63.5 | 247 to 249 |  | CC1SC(=NC2CCCCCC2)N(C)C1CC(=O)Nc1cccc(F)c1.Cl (stereo not shown) [KHG24641, (2-cycloheptylimino-3,5-dimethyl-1,3-thiazolidine-4-yl)-N-(3-fluorophenyl)-acetamide hydrochloride]
